{"source": "patent US20230399622A1", "about": "“THERAPY FOR DEGENERATIVE DISEASE AND TISSUE DAMAGE” (FUNDACIÓ CENTRE DE REGULACIÓ GENÒMICA, priority 2020, published 2023)", "key": {"[1]": {"system": "MSCs", "assay": "Transwell chemotactic assay of MSCs with chemokine receptor antagonists, media conditioned by NMDA-damaged retina", "format": "cell-based, mouse", "details": "towards media conditioned by NMDA-damaged (24 hpi) retina; vs vehicle DMSO; working concentrations of Table 2", "procedure": "(§1) Chemotactic assays were performed using transwell inserts (pore size, 8 μm, BD Biosciences—353182) and 12-well culture plates. To test migration towards defined chemokine gradients, lower chambers were loaded with 1.2 ml of SF DMEM/F-12-GlutaMAX medium with either mCcl5, mCxcl1, mCxcl10, mCxcl16 or a combination of Ccl5 and mCxcl16 (all 50 ng/ml, Peprotech). For tests of NMDA-damage, mice were sacrificed 24 hpi; rd10 mice were sacrificed at P18. Human retina were dissected and cultured for an initial 12 hours in Neurobasal A medium, as previously described. Afterwards, both mouse and human retina were cultured for 24 hours in SF DMEM/F-12-GlutaMAX and SF Neurobasal A (with or without 1 mM NMDA) respectively. 1.2 ml of the resulting conditioned medium were loaded in the lower chambers of the transwell. The upper chamber was loaded with 2×10^5 MSCs in SF medium. The medium used to resuspend MSCs was matched to the medium in the bottom chamber: either DMEM/F-12-GlutaMAX (to test migration towards medium conditioned by mouse retina) or Neurobasal A (to test migration towards medium conditioned by human retina). […]\n(§2) Transwell plates were incubated for 1.5 hours at 37° C. […] For each insert, seven fields were imaged and analysed. Cells were automatically counted using a custom-made macro for the ImageJ software (US National Institutes of Health, Bethesda, Md., USA; http://rsb.info.nih.gov/ij/)."}, "[2]": {"system": "MSCs", "assay": "Transwell chemotactic assay of MSCs with chemokine receptor antagonists, media conditioned by rd10 retina", "format": "cell-based, mouse", "details": "towards media conditioned by rd10 (P18) retina; vs vehicle DMSO; working concentrations of Table 2", "procedure": "as §1, §2"}}}
{"smiles": "NS(=O)(=O)c1c(Cl)ccc(NC(=O)Nc2cccc(Cl)c2Cl)c1O", "note": "[Cxcr2 inhibitor, SB 332235]", "values": [{"measurement": "migration of MSCs in the presence of receptor inhibitors", "setting": "[1]", "value": "not affected"}, {"measurement": "migration of MSCs in the presence of receptor inhibitors", "setting": "[2]", "value": "not affected"}]}
{"smiles": "COc1cc(C(=O)NC2C[C@H]3CCC[C@@H](C2)N3CC(=O)Nc2ccccc2Cl)cc(OC)c1OC", "note": "(stereo partly shown) [Cxcr6 inhibitor, ML 339]", "values": [{"measurement": "migration of MSCs in the presence of receptor inhibitors", "setting": "[1]", "value": "significantly reduced"}, {"measurement": "migration of MSCs in the presence of receptor inhibitors", "setting": "[2]", "value": "significantly reduced"}]}
